In patent publication US8957087B2, “Heterocyclic substituted acardite derivate and application thereof” (Jiangsu Provincial Institute of Materia Medica Co., Ltd., priority 2009, dated 2015):

How the values were obtained:
[1] = system: renal carcinoma cell line GCR-1 transplanted tumor; format: in vivo, BALB/cA nude mice; settings: BALB/cA nude mice; 60 mg/kg, 6 times every week for 3 weeks; Sorafenib oral 60 mg/kg
Method: 11. Tumor inhibition rate of medicines on renal carcinoma cell line GCR-1 transplanted tumor model in nude mice
(§1) [Test animals] female BALB/cA nude mice, 35-40 days old, with weight of 18-22g. There were 12 mice in the negative conrol group and 6 mice in the treatment group.
[Test method] […] The dosage of the medicine was 60 mg/kg, 6 times every week for 3 weeks. […] Equal amount of normal saline was administrated in the negative control group. Observe for one week after administration.

[2] = system: human lung cancer A549 transplantation tumor; format: in vivo; settings: BALB/cA nude mice; 60 mg/kg, 6 times every week for 3 weeks; Sorafenib oral 60 mg/kg
Method: 9. Tumor inhibition rate of tested compounds on human lung cancer A549 cell transplantation model in nude mice
as §1
(§2) The dosage of the compound was 60 mg/kg, 6 times every week for 3 weeks. […] Equal amount of normal saline was administrated in the negative control group. Observe for one week after administration.

[3] = system: human umbilical vein endothelial cell HUVEC; experiment: Lumen formation ability of HUVEC (Matrigel method); format: cell-based; settings: Final concentration 1 x 1.0*10^(−5) mol/L
Source text: 8. Inhibition effects of compounds on the lumen formation ability of human umbilical vein endothelial cell HUVEC
[Experimental principles] The human umbilical vein endothelial cells have ability of spontaneously forming blood lumen on Matrigel, which can be used to simulate the process of angiogenesis in vivo. We used Matrigel method to investigate the effects of the compound on the lumen formation ability of human umbilical vein endothelial cell HUVEC.
[Test materials] HUVEC (taking generation 3 to 5 cells for experiments after obtained from primary separation and cultured at 37 under the conditions of 5% CO2), Matrigel, cell culture medium M199.
(§3) [Tested compound] Compounds 1-38
(§4) [Positive control medicine] Sorafenib, compounds A′, B′, C′ with no substituent or only amino formyl in A ring
(§5) The inhibition rate is calculated as follows: […]

Raf-1(truncated) = experiment: Raf-1 inhibitor screening by chemoluminescence method; format: biochemical; settings: Final concentration 1 x 1.0*10^−5 mol/ml
Source text: 1. Inhibitory activity of the compound of the present invention on raf kinase
Raf-1 inhibitor screening by chemoluminescence method
Westernblot electrophoresis apparatus Rotaryshaker
Raf-1(truncated), Magnesium/ATP Cocktail, MEK1 unactive

mice S180 sarcoma = experiment: Experimental therapeutic action on S180 sarcoma mice; settings: mice S180 sarcoma, 60 mg/kg orally for 9 days
[4] = system: human lung cancer cell strain A549; experiment: MTT assay, inhibition of growth of human lung cancer cell strain A549; format: cell-based
Method: 4. Using 3-(4,5-dimethylthiazol-2-yl)-2,5-diphenyl tetrazolium bromide assay (MTT) to detect the inhibition effects on the growth of human lung cancer cell strain A549
[Test materials] MTT working solution, F12 medium containing 10% FBS, continuous injectors
as §3, §4
The inhibition rate is calculated as follows:
(§6) Relative OD value of conrol well=OD value of control well−OD value of blank well
(§7) Relative OD value of drug well=OD value of drug well−OD value of blank well

[5] = system: Human colon cancer HT-29 transplantable tumor; experiment: Human colon cancer HT-29 transplantable tumor in nude mice; settings: HT-29 in nude mice, 60 mg/kg ig 9 times
[6] = system: human umbilical vein endothelial cell HUVEC; experiment: Growth of human umbilical vein endothelial cell HUVEC by CCK8 method; format: cell-based; settings: Final concentration 1 x 1.0*10^(−5) mol/L
Source text: 7. Effects of tested compounds on the growth of human umbilical vein endothelial cell HUVEC cell by CCK8 method
[Test materials] CCK8, human umbilical vein endothelial cell HUVEC cell, 1640 medium containing 10% FBS
(§8) [Tested compound] Compounds 1-38 to be tested
as §4, §6, §7

lung cancer cell A549 = experiment: Effects on the adhesive ability of lung cancer cell A549; format: cell-based, human; settings: Final concentration 1 x 1.0*10^(−5) mol/L
Method: 6. Effects of tested compounds on the adhesive ability of lung cancer cell A549
[Test materials] gelatin, CCK8, poly-lysine (PLL), A549 cell stains, 1640 medium containing 10% FBS
as §8, §4, §5
Dosing dosing cells without cell group (gelatin adhesive OD/PLL adhesion OD)−Dosing cell group (gelatin adhesive OD/PLL adhesion OD value)
Dosing dosing cells without cell group (gelatin adhesive OD/PLL adhesion OD value)

[7] = system: human liver cancer cell bel-7402 transplantation tumor; format: in vivo; settings: BALB/cA nude mice; 60 mg/kg, 6 times every week for 3 weeks; Sorafenib oral 60 mg/kg
Method: 10. Tumor inhibition rate of tested compounds on human liver cancer cell bel-7402 transplantation tumor model in nude mice
as §1, §2

[8] = system: human high-metastic lung cancer cell 95D; experiment: Inhibition of human high-metastic lung cancer cell 95D migration (Boyden Chamber Transwell); format: cell-based; settings: Final concentration 1 x 1.0*10^(−5) mol/L
Method: 5 Inhibition effects of compounds on human high-metastic lung cancer cell 95D migration
[Test materials] Boyden Chamber Transwell chamber (with pore size of 8 μm), human high-metastic lung cancer cell 95D cell strain, 1640 medium containing 10% FBS, 1640 medium containing no serum
as §3, §4, §5

Compound	Relative tumor reproduction rate T/C (%) on human renal carcinoma GCR-1 cell transplanted tumor model in nude mice [1] [%]	Relative tumor reproduction rate T/C (%) on human lung cancer A549 transplantation tumor in nude mice [2] [%]	Inhibition rate, lumen formation ability of HUVEC [3] [%]	Inhibition rate % on raf kinase (Raf-1(truncated)) [%]	Tumor growth inhibition rate (%) (mice S180 sarcoma)	Inhibition rate, growth of human lung cancer cell A549 [4] [%]	Relative tumor reproduction rate T/C (%) [5] [%]	Inhibition rate, growth of HUVEC cell [6] [%]	Inhibition rate, adhesion ability of human lung cancer cell A549 (lung cancer cell A549) [%]	Relative tumor reproduction rate T/C (%) on human liver cancer cell bel-7402 transplantation tumor model in nude mice [7] [%]	Inhibition rate, 95D cell strain migration [8] [%]
COc1ncncc1Oc1ccc(NC(=O)Nc2ccc(F)c(C(F)(F)F)c2)cc1 [Compound 23, N-(4-fluoro-3-(trifluoromethyl)phenyl)-N′-(4-(5-(4-methoxypyrimidinyl)oxy)phenyl)urea]	9.1	17.1	97.56	89.9	51.5	55.41	39.7	17.41	77.56	17.7	85.53
COc1ncncc1Oc1ccc(NC(=O)Nc2ccc(Br)c(C(F)(F)F)c2)cc1 [Compound 24, N-(4-bromo-3-(trifluoromethyl)phenyl)-N′-(4-(5-(4-methoxypyrimidinyl)oxy)phenyl)urea]	10.8	15.6	93.78	91.3	54.6	86.32	37.8	13.32	73.30	16.8	85.48
Nc1ccc2c(Oc3ccc(NC(=O)Nc4ccc(Cl)c(C(F)(F)F)c4)cc3)cncc2c1 [Compound 25, N-(4-chloro-3-(trifluoromethyl)phenyl)-N′-(4-(4-(7-amino-isoquinolyl)oxy)phenyl)urea]	31.2	39.4	79.79	11.5	55.8	63.26	79.5	23.26	63.51	29.1	59.76
Nc1ccc2c(Oc3ccc(NC(=O)Nc4ccc(F)c(C(F)(F)F)c4)cc3)cncc2c1 [Compound 26, N-(4-fluoro-3-(trifluoromethyl)phenyl)-N′-(4-(4-(7-amino-isoquinolyl)oxy)phenyl)urea]	24.2	33.1	70.53	15.3	7.6	55.50	41.1	32.50	68.57	36.1	60.52
